Laboratory results published in PubChem BioAssay (NCI).
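The compound was tested at five concentrations on cells cultured in 96-well plates, with a 48-hour exposure period. TGI marks complete inhibition of growth.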

Experiments:
Test in all cases: NCI anticancer screen, dose series, 48 h
U251 CNS = tested on: U251 CNS
SNB-19 CNS = tested on: SNB-19 CNS
HT29 colon = tested on: HT29 colon
T-47D breast = tested on: T-47D breast
EKVX NSCLC = tested on: EKVX NSCLC
OVCAR-5 ovarian = tested on: OVCAR-5 ovarian
HL-60(TB) leukemia = tested on: HL-60(TB) leukemia
SF-268 CNS = tested on: SF-268 CNS
UACC-62 melanoma = tested on: UACC-62 melanoma
NCI-H460 lung = tested on: NCI-H460 lung

Measured: TGI

O=c1c(Cc2ccc(Cl)cc2)nnc2sc(-c3ccc(-c4ccc(F)c(Cl)c4)o3)nn12
> 100 µM: U251 CNS | SNB-19 CNS | HT29 colon | T-47D breast | EKVX NSCLC | OVCAR-5 ovarian | HL-60(TB) leukemia | SF-268 CNS | UACC-62 melanoma | NCI-H460 lung

C=C1OC(c2ccccc2NC)=NC12CCCCC2
> 100 µM: U251 CNS | SNB-19 CNS | HT29 colon | T-47D breast | EKVX NSCLC | OVCAR-5 ovarian | HL-60(TB) leukemia | SF-268 CNS | UACC-62 melanoma | NCI-H460 lung
